Measured values from PubChem BioAssay AID1919014 (Molecular Pharmacology Branch, DTP, NCI, 2023).

Test system: NCI-H1341 complex spheroids, percent test/control
Test: Anticancer human tumor NCI-H1341 cell line growth inhibition [AhR];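 further: spheroids exposed to agents for seven days before readout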
Settings: for IC50: curve of first compound; for viability, T/C: stronger effect = lower value
From the text: Multicellular complex tumor spheroid response to aryl hydrocarbon receptor antagonists in combination with a variety of drugs and investigational agents in selected tumor cell lines
The current study was undertaken to assess response to aryl hydrocarbon receptor antagonists in combination with standard-of-care drugs and investigational agents in solid tumor complex spheroid models. Complex spheroids include a stromal component modeled by human endothelial cells (HUVEC) and fibroblasts modeled by human mesenchymal stem cells (MSCs). The concentration ranges selected for each drug and investigational agent were based upon clinically achievable concentrations if the clinical Cmax of the agent was known.
Compounds. The drugs and investigational agents: BAY 2416964 (NSC825713), GNF351 (NSC835774), CH-223191 (NSC835775), CPI-455 (NSC825282), aza-TdCyd (NSC777586), decitabine (NSC127716), belinostat (NSC758774), entinostat (NSC756642), pevonedistat (NSC761192), tazemetostat (NSC777109), talazoparib (NSC765396), olaparib (NSC753686), selinexor (NSC780203), nedisertib (M3814, NSC802822), bortezomib (NSC756655), venetoclax (NSC766270), doxorubicin (NSC123127), elimusertib (BAY189344, NSC800525), ceralasertib (AZD6738, NSC777638), TAK-243 (NSC785004), alisertib (NSC759677), etoposide (NSC141540), topotecan (NSC609699), eribulin (NSC707389), gemcitabine (NSC613327), carboplatin (NSC241240), cisplatin (NSC119875), and SN-38 (NSC673596) were obtained from the National Cancer Institute (NCI) Developmental Therapeutics Program Chemical Repository (32). The FDA-approved anticancer drug set is available from the Developmental Therapeutics Program at https://dtp.cancer.gov/organization/dscb/obtaining/available plates.htm. […] The stock solutions were prepared in dimethyl sulfoxide (DMSO, Sigma-Aldrich, St. Louis, MO, cat. D2650), except for the platinum compounds which were prepared in saline (Quality Biological, Gaithersburg, MD, cat. 114-055-101), at 800-fold the tested concentration and stored at -70 degrees C prior to their use. All drugs and investigational agents were tested over a range starting from a high concentration at or near the clinical Cmax and decreasing in half-log increments. If the clinical Cmax for an agent had not been determined, the highest concentration tested was 10 microM (Table 1).
Cell Culture. All cells were maintained in an incubator at 37 degrees C and 5% CO2 with 95% humidity. The PDC lines were cultured according to standard operating procedures established by the NCI PDMR (https://pdmr.cancer.gov). Briefly, all PDCs were thawed and cultured in Matrigel-coated flasks prepared with a working solution of 1X Ham's F-12 nutrient mix, without supplementation (Invitrogen, Waltham, MA, cat. 11765054), 100 U/mL penicillin-streptomycin (Invitrogen, cat. 15140122), and 2.5% Matrigel (Corning Inc., Corning, NY, cat. 354248) for the first three passages. All PDCs were cultured in complete DMEM/F-12 media containing advanced DMEM/F-12 (Invitrogen, cat. 12634028), 4.9% defined fetal bovine serum, heat inactivated (HyClone Laboratories Inc., Logan, UT, cat. SH30070.03HI), 389 ng/mL hydrocortisone (Sigma-Aldrich, cat. H4001), 9.7 ng/mL human EGF recombinant protein (Invitrogen, cat. PHG0313), 23.4 microg/mL adenine (Sigma-Aldrich, cat. A2786), 97.3 U/mL penicillin-streptomycin (Invitrogen, cat. 15140122), 1.9 mM L-glutamine (Invitrogen, cat. 25030081), and 9.7 microM Y-27632 dihydrochloride (Tocris Bioscience, Bristol, United Kingdom, cat. 1254). The PDCs were cultured in complete DMEM/F12 media without 10 microM Y-27632 dihydrochloride for at least two passages prior to the screen. The established cell lines NCI-H1341 and […] were cultured in DMEM/F-12, HEPES (Invitrogen, cat. 11330032), 5% defined fetal bovine serum (HyClone Laboratories Inc., cat. SH30070.03), ITS premix universal culture supplement [insulin (5 microg/mL), transferrin (5 microg/mL), and selenious acid (5 ng/mL)] […]

[1] = second compound 0.1 µM, first compound 0.00316 µM
[2] = second compound 0.1 µM, first compound 0.01 µM
[3] = second compound 0.1 µM, first compound 0.0316 µM
[4] = second compound 0.1 µM, first compound 0.1 µM
[5] = second compound 0.1 µM, first compound 0.316 µM
[6] = second compound 0.1 µM, first compound 1 µM
[7] = second compound 0.316 µM, first compound 0.00316 µM
[8] = second compound 0.316 µM, first compound 0.01 µM
[9] = second compound 0.316 µM, first compound 0.0316 µM
[10] = second compound 0.316 µM, first compound 0.1 µM
[11] = second compound 0.316 µM, first compound 0.316 µM
[12] = second compound 0.316 µM, first compound 1 µM
[13] = second compound 1 µM, first compound 0.00316 µM
[14] = second compound 1 µM, first compound 0.01 µM
[15] = second compound 1 µM, first compound 0.0316 µM
[16] = second compound 1 µM, first compound 0.1 µM
[17] = second compound 1 µM, first compound 0.316 µM
[18] = second compound 1 µM, first compound 1 µM
[19] = second compound 3.16 µM, first compound 0.00316 µM
[20] = second compound 3.16 µM, first compound 0.01 µM
[21] = second compound 3.16 µM, first compound 0.0316 µM
[22] = second compound 3.16 µM, first compound 0.1 µM
[23] = second compound 3.16 µM, first compound 0.316 µM
[24] = second compound 3.16 µM, first compound 1 µM
[25] = second compound 10 µM, first compound 0.00316 µM
[26] = second compound 10 µM, first compound 0.01 µM
[27] = second compound 10 µM, first compound 0.0316 µM
[28] = second compound 10 µM, first compound 0.1 µM
[29] = second compound 10 µM, first compound 0.316 µM
[30] = second compound 10 µM, first compound 1 µM

Compound | IC50 (second compound 0.1 µM) | IC50 (second compound 0.316 µM) | IC50 (second compound 1 µM) | IC50 (second compound 3.16 µM) | IC50 (second compound 10 µM) | viability, T/C [1] | viability, T/C [2] | viability, T/C [3] | viability, T/C [4] | viability, T/C [5] | viability, T/C [6] | viability, T/C [7] | viability, T/C [9] | viability, T/C [10] | viability, T/C [15] | viability, T/C [16] | viability, T/C [21] | viability, T/C [22] | viability, T/C [27] | viability, T/C [28] | other results
Nc1ncn(C2CC(O)C(CO)O2)c(=O)n1 (stereo not given) + Cc1ccccc1N=Nc1ccc(NC(=O)c2ccnn2C)c(C)c1 | > 1 µM | > 1 µM | > 1 µM | 0.763 µM | 0.135 µM | 102% | 103% | 84.1% | 63.7% | 59.6% | 51% | 102% | 100% | 79.2% | 81% | 60.2% | 68.5% | 61.8% | 61.8% | 49.9% | viability, T/C [8]: 101%; viability, T/C [11]: 53.8%; viability, T/C [12]: 51%; viability, T/C [13]: 100%; viability, T/C [14]: 97%; viability, T/C [17]: 63%; viability, T/C [18]: 54.5%; viability, T/C [19]: 81.4%; viability, T/C [20]: 77%; viability, T/C [23]: 53.1%; viability, T/C [24]: 49.7%; viability, T/C [25]: 70.6%; viability, T/C [26]: 54.9%; viability, T/C [29]: 47.8%; viability, T/C [30]: 42.1%
Cn1ncnc1C1c2n[nH]c(=O)c3cc(F)cc(c23)NC1c1ccc(F)cc1 (stereo not given) + Cc1cncc(-c2nc(NCCc3c[nH]c4ccccc34)c3ncn(C(C)C)c3n2)c1 | > 0.1 µM | > 0.1 µM | > 0.1 µM | > 0.1 µM | < 0.000316 µM | 93.4% | 89.3% | 80.6% | 69.1% | – | – | 89.2% | 66.8% | 73.4% | 80.6% | 64.5% | 77.2% | 62.5% | 36.1% | 40.2% | viability, T/C (second compound 0.1 µM, first compound 0.000316 µM): 99.9%; viability, T/C (second compound 0.1 µM, first compound 0.001 µM): 98.5%; viability, T/C (second compound 0.316 µM, first compound 0.000316 µM): 87%; viability, T/C (second compound 0.316 µM, first compound 0.001 µM): 86.8%; viability, T/C [8]: 91.7%; viability, T/C (second compound 1 µM, first compound 0.000316 µM): 78.2%; viability, T/C (second compound 1 µM, first compound 0.001 µM): 79.8%; viability, T/C [13]: 88.2%; viability, T/C [14]: 95.6%; viability, T/C (second compound 3.16 µM, first compound 0.000316 µM): 73.9%; viability, T/C (second compound 3.16 µM, first compound 0.001 µM): 75.6%; viability, T/C [19]: 75.6%; viability, T/C [20]: 72.6%; viability, T/C (second compound 10 µM, first compound 0.000316 µM): 38.7%; viability, T/C (second compound 10 µM, first compound 0.001 µM): 40.6%; viability, T/C [25]: 43.9%; viability, T/C [26]: 42.1%
CC(C)c1c(-c2ccccc2)nc2c(C#N)c[nH]n2c1=O + Cc1ccccc1N=Nc1ccc(NC(=O)c2ccnn2C)c(C)c1 | > 10 µM | > 10 µM | > 10 µM | > 10 µM | < 0.0316 µM | – | – | 84.2% | 87.6% | 86.5% | 87.5% | – | 99% | 82.8% | 90.1% | 93.8% | 72.2% | 77.1% | 44.9% | 49% | viability, T/C (second compound 0.1 µM, first compound 3.16 µM): 81.7%; viability, T/C (second compound 0.1 µM, first compound 10 µM): 96.4%; viability, T/C [11]: 84.2%; viability, T/C [12]: 92.2%; viability, T/C (second compound 0.316 µM, first compound 3.16 µM): 97.5%; viability, T/C (second compound 0.316 µM, first compound 10 µM): 83.2%; viability, T/C [17]: 74%; viability, T/C [18]: 81.7%; viability, T/C (second compound 1 µM, first compound 3.16 µM): 83.8%; viability, T/C (second compound 1 µM, first compound 10 µM): 95.7%; viability, T/C [23]: 59.5%; viability, T/C [24]: 72.2%; viability, T/C (second compound 3.16 µM, first compound 3.16 µM): 73.3%; viability, T/C (second compound 3.16 µM, first compound 10 µM): 76.4%; viability, T/C [29]: 52%; viability, T/C [30]: 48.6%; viability, T/C (second compound 10 µM, first compound 3.16 µM): 59.3%; viability, T/C (second compound 10 µM, first compound 10 µM): 42.9%
